Experimental data as given in patent publication US20140378460A1, “COMPOSITIONS AND METHODS FOR TREATING NEURODEGENERATIVE DISEASE” (COGNITION THERAPEUTICS, INC., priority 2011, published 2014).
Like-named read-outs stand apart in the source and are kept apart here.

Key:
[1] = system: Abeta oligomer-induced membrane trafficking deficits in primary hippocampal neurons; assay: Membrane trafficking/exocytosis (MTT) assay; format: cell-based, rat; details: for IC50: read-out: Membrane trafficking IC50
Description: The methods used to generate the results were as follows in the Membrane Trafficking/Exocytosis (MTT) assay.
Primary hippocampal neurons from E18 Sprague-Dawley rat embryos were plated at optimized concentrations in 384 well plates in NB media (Invitrogen). Neurons were maintained in cultures for 3 weeks, with twice weekly feeding of NB media with N2 supplement (Invitrogen).
A test compound was added to cells at concentrations ranging from 100 uM to 0.001 nM followed by addition of vehicle or Abeta oligomer preparations (3 μM total Abeta protein concentration), and incubated for 1 to 24 hr at 37° C. in 5% CO2. MTT reagent (3-(4,5-dimethylthizaol-2-yl)-2,5diphenyl tetrazolium bromide) (Roche Molecular Biochemicals) was reconstituted in phosphate buffered saline to 5 mg/mL. 10 μl, of MTT labeling reagent is added to each well and incubated at 37° C. for 1 h, then imaged. Exocytosis was assessed by automated microscopy and image processing to quantify the amount of endocytosed and exocytosed formazan.
Each assay plate was formatted so that compounds are tested with and without Abeta oligomer on each plate.

[2] = system: Sigma-1 receptors; details: known prior art compounds; cited from earlier work
[3] = target: T1, sigma-2 receptor (Rattus norvegicus, UniProt Q5U3Y7); design: other: known prior art compounds, published studies; details: cited from earlier work
T1 sequence (Q5U3Y7 1-176): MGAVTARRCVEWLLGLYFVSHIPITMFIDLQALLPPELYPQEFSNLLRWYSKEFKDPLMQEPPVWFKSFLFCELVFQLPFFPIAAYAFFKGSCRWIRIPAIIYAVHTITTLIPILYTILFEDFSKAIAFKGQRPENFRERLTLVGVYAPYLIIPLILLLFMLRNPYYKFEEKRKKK

[4] = target: T2, Sigma-1 receptors (UniProt Q60492); details: cited from earlier work
T2 construct: other: known prior art compounds, published studies

[5] = Rattus norvegicus, Hippocampal neuron, Table 11C, known prior art compounds, read-out: Inhibition Abeta oligomer-induced Membrane Trafficking EC50
[6] = Table 11C, known prior art compounds, read-out: Inhibition Abeta oligomer-induced Membrane Trafficking EC50
[7] = Table 11C, read-out: S2 binding Ki
[8] = Table 11D, read-out: Sigma-2 Receptor Ki
[9] = known prior art compounds, published studies, read-out: Sigma 2 Binding Ki
[10] = dosed prior to Abeta oligomer addition, read-out: EC50 in inhibiting amyloid beta effect in Cell Measured by Membrane Trafficking Assay
[11] = scaffold drawing 245, R' varied, read-out: Membrane Trafficking EC50
[12] = Table 11C, read-out: S1 binding Ki
[13] = known prior art compounds, published studies, read-out: Sigma 1 Binding Ki
[14] = Table 11D, read-out: Sigma-1 Receptor Ki

Compound: Cc1ccccc1NC(=N)Nc1ccccc1C [DTG]
- Max Inhibition of Abeta (%) [1]: 23%
- EC50 [1, 5]: > 20000 nM
- Functional Neuronal Phenotype ([1]; Table 11C): Inactive
- Sigma 1 (Type of Activity) [2]: (agonist)

Compound: CN(CCc1ccc(Cl)c(Cl)c1)CCN1CCCC1 [BD1008]
- Functional Neuronal Phenotype ([1]; Table 11C): Antagonist
- EC50 [1, 6]: 1500 nM
- Functional Neuronal Phenotype ([1]; Table 11D): Antagonist
- IC50 ([1]; Table 11D): 1500 nM
- Sigma 1 (Type of Activity) [2]: (antagonist)
- Ki [3, 7]: 8 nM
- Ki [3, 8]: 8 nM
- Ki [3, 9]: 8 nM

Compound: COc1cc(CCC(C)NCc2ccc(C(F)(F)F)cc2)ccc1O (single isomer, unassigned; (-)) [(−) enantiomer]
- EC50 [1, 10]: 10900 nM

Compound: COc1cc(CCC(C)NCc2ccc(Cl)cc2)ccc1O (centres unmarked) [Entry 2]
- EC50 [1, 11]: 12000 nM

Compound: COc1cccc2c1CCCC2CCCN1CCN(C2CCCCC2)CC1 (centres unmarked) [PB 28]
- Max Inhibition of Abeta (%) [1]: 84%
- Functional Neuronal Phenotype ([1]; Table 11C): Antagonist
- EC50 [1, 6]: 1000 nM
- Functional Neuronal Phenotype ([1]; Table 11D): Antagonist
- IC50 ([1]; Table 11D): 1000 nM
- Ki [3, 7]: 0.8 nM
- Ki [3, 8]: 0.8 nM
- Ki [3, 9]: 0.8 nM

Compound: COc1cc(CCC(C)NCc2ccc(C(F)(F)F)cc2)ccc1O (single isomer, unassigned; (+)) [(+) enantiomer of Cpd II]
- EC50 ([1]; read-out: EC 50 in screening assay using single concentration of Abeta oligomer): 5600 nM

Compound: COc1cc(CCC(C)NCCC(C)C)ccc1O (centres unmarked) [Entry 4]
- EC50 [1, 11]: > 30000 nM

Compound: CC12CC3CC(C)(C1)CC(N)(C3)C2 [Memantine, memantine]
- inhibition at 28 µM ([1]; Rattus norvegicus, Hippocampal neuron, 28 μM, read-out: Inhibition of oligomer effects): 50%

Compound: O=C(OCCN1CCOCC1)C1(c2ccccc2)CCCCC1 [PRE-84]
- Activity in membrane trafficking assay [1]: inactive
- Max Inhibition of Abeta (%) [1]: 38%
- Functional Neuronal Phenotype ([1]; Table 11C): Inactive
- EC50 [1, 6]: > 30000 nM
- Sigma 1 (Type of Activity) [2]: (agonist)
- Ki [3, 9]: 13100 nM

Compound: C=CCN1CCC2(C)c3cc(O)ccc3CC1C2C (centres unmarked) [SFK10047]
- Sigma 1 (Type of Activity) [2]: (agonist)
- Ki [3, 9]: 39700 nM

Compound: CN[C@H]1CC[C@@H](c2ccc(Cl)c(Cl)c2)c2ccccc21 [Sertraline]
- Sigma 1 (Type of Activity) [2]: (antagonist)

Compound: COc1cc(CCC(C)NCc2ccc(C(F)(F)F)cc2)ccc1O (single isomer, unassigned; (+)) [(+) enantiomer]
- EC50 [1, 10]: 5600 nM

Compound: CNC(C)CCc1ccc(O)c(OC)c1 (centres unmarked) [Entry 5]
- EC50 [1, 11]: 30000 nM

Compound: C=CCN1CC[C@]2(C)c3cc(O)ccc3C[C@H]1[C@H]2C [SKF 10,047]
- Functional Neuronal Phenotype ([1]; Table 11C): Inactive
- EC50 [1, 6]: > 30000 nM
- Ki [3, 7]: > 10000 nM

Compound: CN1CCN(CCc2ccc(Cl)c(Cl)c2)CC1 [BD1063]
- Functional Neuronal Phenotype ([1]; Table 11C): Inactive
- EC50 [1, 6]: > 30000 nM
- Sigma 1 (Type of Activity) [2]: (antagonist)
- Ki [4, 12]: 8.8 nM
- Ki [4, 13]: 8.8 nM

Compound: c1ccc(CCCCN2CCC(c3ccccc3)CC2)cc1 [PPBP]
- Functional Neuronal Phenotype ([1]; Table 11C): Antagonist
- EC50 [1, 6]: 10900 nM
- Functional Neuronal Phenotype ([1]; Table 11D): Antagonist
- IC50 ([1]; Table 11D): 10900 nM
- Sigma 1 (Type of Activity) [2]: (agonist)
- Ki [4, 12]: 0.8 nM
- Ki [4, 14]: 0.8 nM
- Ki [4, 13]: 0.8 nM

Compound: CC(C(O)c1ccc(O)cc1)N1CCC(Cc2ccccc2)CC1 (centres unmarked) [Ifenprodil]
- Max Inhibition of Abeta (%) [1]: 38%
- EC50 [1, 5]: > 20000 nM
- Functional Neuronal Phenotype ([1]; Table 11C): Inactive

Compound: CCCN(CCC)CCc1ccc(OC)c(OCCc2ccccc2)c1 [NE100]
- Sigma 1 (Type of Activity) [2]: (antagonist)
- Ki [4, 13]: 1.1 nM
- Ki [3, 9]: 170 nM

Compound: CCCN(CCC)CCc1ccc(OC)c(OCCc2ccccc2)c1 [NE 100]
- Max Inhibition of Abeta (%) [1]: 98%
- Functional Neuronal Phenotype ([1]; Table 11C): Antagonist
- EC50 [1, 6]: 1300 nM
- Functional Neuronal Phenotype ([1]; Table 11D): Antagonist
- IC50 ([1]; Table 11D): 1300 nM
- Ki [4, 12]: 1.1 nM
- Ki [4, 14]: 1.1 nM
- Ki [3, 7]: 170 nM
- Ki [3, 8]: 170 nM

Compound: COc1cc(CCC(C)NCc2ccccc2)ccc1O (centres unmarked) [Entry 3]
- EC50 [1, 11]: 20000 nM
